Test results from patent publication US20260250318A1, “COMPOSITIONS AND METHODS FOR CROSSING THE BLOOD BRAIN BARRIER” (VOYAGER THERAPEUTICS, INC., priority 2022, published 2026).

What follows are sequences tested on brain, spinal cord, and DRG of the NHPs (assay: NGS fold enrichment of synthetic library (passage 3) in NHPs, first cross-species screen). Details: synthetic library passage 3, intravenous, RNA NGS, brain of NHPs, relative to wild-type AAV9.
Format: in vivo, cynomolgus macaques (Macaca fascicularis)
Summary of the method: (§1)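 Passage-3 synthetic capsid library given intravenously […] to NHPs (2-4 years) and BALB/c or C57Bl/6 mice (n=3, 6-8 weeks). After e.g. 28 days, tissue RNA was RT-PCR amplified and NGS-sequenced; values are fold enrichment of each variant relative to wild-type AAV9.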

Point of comparison: GSGHSSHSVQNQQT, “Fold enrichment over AAV9 in the brain of NHPs” value 3.339 fold. Against it:
- GGGTKMDSGQNQQT — lower, 3.034 fold
- GSGFHTDSRQNQQT — lower, 1.748 fold

Same assay, conditions: synthetic library passage 3, intravenous, RNA NGS, spinal cord of NHPs, relative to wild-type AAV9

Point of comparison: GSGFHTDSRQNQQT, “Fold enrichment over AAV9 in the spinal cord of NHPs” value 4.384 fold. Against it:
- GSGHSSHSVQNQQT — lower, 3.318 fold
- GGGTKMDSGQNQQT — lower, 0.000 fold

These sequences were tested on brain (assay: NGS fold enrichment of synthetic library (passage 3) in BALB/c mice, first cross-species screen). Details: synthetic library passage 3, intravenous, RNA NGS, brain of BALB/c mice, relative to wild-type AAV9.
Format: in vivo
Summary of the method: as §1

Point of comparison: GSGHSSHSVQNQQT, “Fold enrichment over AAV9 in the brain of Mice (BALB/c)” value 0.424 fold. Against it:
- GGGTKMDSGQNQQT — lower, 0.297 fold
- GSGFHTDSRQNQQT — higher, 0.575 fold

These sequences were tested on brain (assay: NGS fold enrichment of synthetic library (passage 3) in C57Bl/6 mice, first cross-species screen). Details: synthetic library passage 3, intravenous, RNA NGS, brain of C57Bl/6 mice, relative to wild-type AAV9.
Format: in vivo
Summary of the method: as §1

Point of comparison: GSGFHTDSRQNQQT, “Fold enrichment over AAV9 in the brain of Mice (C57Bl/6)” value 7.344 fold. Against it:
- GSGHSSHSVQNQQT — lower, 0.942 fold
- GGGTKMDSGQNQQT — lower, 0.733 fold

What follows are sequences tested on brains, heart, liver, muscle, and DRG of the NHPs (assay: Maturation of TTM-001 and TTM-002 capsids, NGS enrichment in NHP tissues). Details: NGS fold-enrichment of RNA, NHP brain, relative to AAV9 control.
Format: in vivo
Summary of the method: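 Variants carry mutations within and flanking the loop IV peptide insert: positions 450–466 were triplet-randomized, while positions 449–466 received low-frequency point mutations. The combined pool went into two NHPs, and each peptide was scored by NGS enrichment ratio against AAV9.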

Point of comparison: KTINGQDSPHKSGQHQQA, “Fold Enrichment relative to AAV9, Brain (NHP)” value 85.657 fold. Against it:
- KSINGHDSPHKSGQRQHT — lower, 80.132 fold
- KTINGHDSPHKSRQDQHT — lower, 75.595 fold
- KTINGSGSPHSKAQHRIT — lower, 76.849 fold

Same assay, conditions: NGS fold-enrichment, DRG of NHPs, relative to AAV9 control

In the case of KTINGSGSPHSKAQHRIT, the “Fold Enrichment relative to AAV9, DRG (NHP)” value is reported as 0.105 fold.

Same assay, conditions: NGS fold-enrichment, NHP DRG, relative to AAV9 control

Point of comparison: KTINGQDSPHKSGQHQQA, “Fold Enrichment relative to AAV9, DRG (NHP)” value 1.127 fold. Against it:
- KSINGHDSPHKSGQRQHT — lower, 0.000 fold
- KTINGHDSPHKSRQDQHT — lower, 0.000 fold
- KTINGSGSPHSKAQHRIT — lower, 0.105 fold

Same assay, conditions: NGS fold-enrichment, NHP heart, relative to AAV9 control

Point of comparison: KTINGQDSPHKSGQHQQA, “Fold Enrichment relative to AAV9, Heart (NHP)” value 0.579 fold. Against it:
- KSINGHDSPHKSGQRQHT — lower, 0.357 fold
- KTINGHDSPHKSRQDQHT — lower, 0.049 fold
- KTINGSGSPHSKAQHRIT — lower, 0.499 fold

Same assay, conditions: NGS fold-enrichment, NHP liver DNA, relative to AAV9 control

Point of comparison: KTINGSGSPHSKAQHRIT, “Fold Enrichment relative to AAV9, Liver DNA (NHP)” value 0.214 fold. Against it:
- KSINGHDSPHKSGQRQHT — lower, 0.000 fold
- KTINGHDSPHKSRQDQHT — lower, 0.045 fold
- KTINGQDSPHKSGQHQQA — higher, 0.557 fold

Same assay, conditions: NGS fold-enrichment, NHP liver RNA, relative to AAV9 control

Point of comparison: KSINGHDSPHKSGQRQHT, “Fold Enrichment relative to AAV9, Liver RNA (NHP)” value 0.000 fold. Against it:
- KTINGHDSPHKSRQDQHT — higher, 0.030 fold
- KTINGQDSPHKSGQHQQA — higher, 0.193 fold
- KTINGSGSPHSKAQHRIT — higher, 1.424 fold

Same assay, conditions: NGS fold-enrichment, NHP muscle, relative to AAV9 control

Point of comparison: KTINGHDSPHKSRQDQHT, “Fold Enrichment relative to AAV9, Muscle (NHP)” value 0.118 fold. Against it:
- KSINGHDSPHKSGQRQHT — lower, 0.000 fold
- KTINGQDSPHKSGQHQQA — lower, 0.000 fold
- KTINGSGSPHSKAQHRIT — higher, 0.170 fold

Same assay, conditions: NGS fold-enrichment, RNA, brain of NHPs, relative to AAV9 control

KTINGSGSPHSKAQHRIT was tested, and the “Fold Enrichment relative to AAV9, Brain (NHP)” value was 76.849 fold.

Same assay, conditions: NGS fold-enrichment, heart of NHPs, relative to AAV9 control

In the case of KTINGSGSPHSKAQHRIT, the “Fold Enrichment relative to AAV9, Heart (NHP)” value is reported as 0.499 fold.

Same assay, conditions: NGS fold-enrichment, liver DNA of NHPs, relative to AAV9 control

In the case of KTINGSGSPHSKAQHRIT, the “Fold Enrichment relative to AAV9, Liver DNA (NHP)” value is reported as 0.214 fold.

Same assay, conditions: NGS fold-enrichment, liver RNA of NHPs, relative to AAV9 control

KTINGSGSPHSKAQHRIT was tested, and the “Fold Enrichment relative to AAV9, Liver RNA (NHP)” value was 1.424 fold.

Same assay, conditions: NGS fold-enrichment, muscle of NHPs, relative to AAV9 control

KTINGSGSPHSKAQHRIT was tested, and the “Fold Enrichment relative to AAV9, Muscle (NHP)” value was 0.170 fold.

These sequences were tested on brain (assay: Matured TTM-001 and TTM-002 variants, NGS enrichment in mouse brain). Details: NGS fold-enrichment, brain of mice, relative to AAV9 control.
Format: in vivo, mice

For KTINGSGSPHSKAQHRIT, the “Fold Enrichment relative to AAV9, Brain (Mouse)” value was 127.000 fold.

Same assay, conditions: NGS fold-enrichment, mouse brain, relative to AAV9 control

Point of comparison: KTINGHDSPHKSRQDQHT, “Fold Enrichment relative to AAV9, Brain (Mouse)” value 8.540 fold. Against it:
- KSINGHDSPHKSGQRQHT — higher, 9.851 fold
- KTINGQDSPHKSGQHQQA — lower, 5.582 fold
- KTINGSGSPHSKAQHRIT — higher, 127.000 fold
